Reference: US9556235B2, “F11 receptor (F11R) antagonists as therapeutic agents” (The Research Foundation for The State University of New York, priority 2003, dated 2017)
Entries after “also recorded” stand apart in the source; their conditions may differ.

Legend:
[1] = system: platelets; experiment: Platelet adhesion to immobilized M.Ab.F11 (BCA protein assay); type: cell-based, human; conditions: for inhibition of the adhesion of platelets to immobilized M.Ab.F11: M.Ab.F11 150 ng/well; for inhibition in platelet adhesion assay (immobilized M.Ab.F11): FIG. 3 legend, concentration not given
Procedure: An adhesion assay, based on the determination of cell-derived protein using Bicinchoninic Acid (BCA) protein assay (Tuszynski et al. (1990) Anal. Biochem 184:189-191, incorporated herein by reference), was used for platelet adhesion to immobilized M.Ab.F11. Wells of a 96-well plate (Nunc-Immuno™ Plate, MaxiSorp™ Surface, flat bottomed) were incubated overnight at 4° C. with […] of a 1 mg/ml solution of M.Ab.F11. Wells were aspirated, washed, treated with TBS/1% BSA for 1 h at 37° C., and washed with TBS/0.1 mM MnCl2/0.1 mM CaCl2. Isolated platelet suspensions (100 μl) (3×10^8/ml) were added and plates were incubated at 37° C. for 90 min. Total platelet-associated protein was determined by dissolving the attached platelets directly with 100 μl BCA. Platelets were incubated at 37° C. for 2 h, and absorbance (595 nm) determined (Dynatech Laboratories, Chantilly, Va.).
The five peptides with sequences shown in Table 1 were tested also for their effects on the adhesion of platelets to immobilized M.Ab.F11 (applied at a concentration of 150 ng/well). […] Peptide 1 (SEQ ID NO: 1), added at 50 μM caused about 60% inhibition of the adhesion of platelets to immobilized M.Ab.F11, and with 500 μM of peptide 1 (SEQ ID NO: 1), about 70% inhibition was observed. Peptide 4 (SEQ ID NO: 4), at 50 μM, produced very little (10%) inhibition compared to peptide 1 (SEQ ID NO: 1) at similar concentrations. However, 500 μM of peptide 4 (SEQ ID NO: 4) produced approximately 70% inhibition in the adhesion of platelets to M.Ab.F11, similar to that observed with peptide 1 (SEQ ID NO: 1) at the same concentration.

[2] = system: human platelets; experiment: Potentiation by M.Ab.F11 of ADP-induced platelet aggregation (sub-threshold M.Ab.F11 plus ADP); type: cell-based; conditions: for inhibition of M.Ab.F11 plus ADP-induced platelet aggregation: M.Ab.F11 0.3 μg/ml, ADP 0.5 μM
Procedure: (§1) Whole blood was collected into the anticoagulant ACD (pH 4.6), as detailed (Kornecki et al. (1990) J. Biol. Chem., 265:10042-10048, incorporated herein by reference). Platelets were washed and isolated by differential centrifugation, and resuspended in a Tyrode-albumin (0.35%) solution buffered with 11.9 mM sodium bicarbonate (pH 7.35) in the presence of apyrase, heparin, and PGE1 (Id.). […] Platelet aggregation was measured in a Chronolog Whole Blood Lumi-Aggregometer (Chronolog Corp. Havertown, Pa.). […] The lowest concentration of each agonist which caused platelet aggregation was determined in these experiments for each donor on the day of blood collection.
Synthetic peptides according to published sequences of F11R were prepared.

[3] = system: human platelets; experiment: Potentiation by M.Ab.F11 of collagen-induced platelet aggregation; type: cell-based
Procedure: as §1
However, the addition of sub-threshold amounts of collagen and M.Ab.F11 triggered a full-blown platelet aggregation.

[4] = system: apoE KO mice; experiment: Plaque formation in animal model of atherosclerosis (apoE KO mice); type: in vivo; conditions: for physical appearance of the animals (secondary consequences of atherosclerosis): 5 month period, Western-type diet, FIG. 7
Procedure: The results of an in-vivo study of the effects of F11R peptide 4D on plaque formation in an animal model of atherosclerosis (apoE knockout/KO mice) are discussed below. The atherosclerosis-prone apoE KO is a strain of mice that has been genetically engineered to develop cardiovascular disease. This genetic abnormality is manifested by the continuous development of atherosclerotic plaques from early age to adulthood, accompanied by deteriorating, sickly appearance.
The study was conducted on atherosclerosis prone apoE deficient (knock-out female mice of 6 weeks of age) of a C57BL/6 background. The mice were obtained from the Jackson Laboratory (Bar Harbor, Me.). Seven animals were injected daily with peptide 4D. In parallel, control groups, consisting of animals injected with water, the vehicle used to deliver peptide 4D, was maintained. All mice were fed a Western-type diet.
At pre-determined intervals of 3, 4 and 5 months of treatment, the aortae were dissected. Following the dissection of the aortae of all mice, morphometric analyses of lesion areas was performed on aortic arch sections stained with Harris hematoxylin-eosin. The total intimal lesion areas were quantified by taking the average of 6 sections spaced 30 μm apart, beginning at the base of the aortic root of each animal. Images were viewed and captured with a microscope (Nikon) equipped with a color video camera (Motic Images Plus 2.0) attached to a computerized imaging system with Image-J.
En face assays (to visualize the entire aorta) were conducted for comparison of the size and number of atherosclerotic plaques in treated and untreated animals using an Oil red O staining procedure, as shown in FIG. 9. […] FIG. 9B illustrates the differences in the number and size of plaques in animals following a 4-month period of injection with peptide 4D, comparing animals “P4, P5” treated with peptide 4D versus controls “H3, H4, H5”.
The proximal aortae of treated an untreated groups were also assessed by hematoxylin-eosin staining of the proximal aorta (root assay) for the size of the lesions/plaques and the necrotic core area within the proximal aorta. FIG. 10A illustrates the plaques and the size of the necrotic core area of animals treated or not treated with peptide 4D for a 3 month period.

[5] = system: human platelets; experiment: M.Ab.F11-induced platelet aggregation; type: cell-based; conditions: sF11R 1 μg/ml; M.Ab.F11 2.45 μg/ml; FIG. 1A
Procedure: as §1
The soluble polypeptide sF11R was tested in the platelet aggregation assay to determine its effect on the rate and extent of platelet aggregation.
The F11R/JAM-A receptor is constitutively expressed on the surface membrane of human platelets. Studies were carried out testing the effects of Fab fragments prepared from M.Ab.F11, i.e., on the M.Ab.F11-induced platelet aggregation that is triggered by M.Ab.F11 binding to F11R. It was determined that these Fab fragments interfered with the ability of the intact M.Ab.F11 antibody to activate platelets through the constitutively-expressed F11R.
As shown below, platelet aggregation was assayed in the presence of either 0.1 μg/ml (FIG. 4a), or 1.0 μg/ml (FIG. 4b). […]

[6] = peptide approximately 50-500 μM
[7] = collagen 0.5 μg/ml (sub-threshold), peptide concentration not given

EQDGSPPSEYTWFKD [peptide 5, F11R amino acids 128-142, control peptide]
inhibition of the adhesion of platelets to immobilized M.Ab.F11 ([1]; peptide 500 μM): did not cause significant inhibition | inhibition of M.Ab.F11 plus ADP-induced platelet aggregation [2, 6]: no inhibitory effects | inhibition of M.Ab.F11 plus ADP-induced platelet aggregation ([2]; peptide approximately 50-500 μM, listed as SEQ ID NO: 5): do not inhibit aggregation | block of potentiation by M.Ab.F11 of collagen-induced platelet aggregation [3, 7]: did not inhibit platelet aggregation

KSVTREDTGTYTC [peptide 4]
inhibition in platelet adhesion assay (immobilized M.Ab.F11) [1]: inhibition | inhibition of the adhesion of platelets to immobilized M.Ab.F11 ([1]; peptide 50 μM): 10% | inhibition of the adhesion of platelets to immobilized M.Ab.F11 ([1]; peptide 500 μM): about 70% | inhibition of M.Ab.F11 plus ADP-induced platelet aggregation ([2]; peptide approximately 50 μM): completely block | inhibition of M.Ab.F11 plus ADP-induced platelet aggregation ([2]; peptide approximately 50 μM, listed as Peptide 4): completely inhibited aggregation | block of potentiation by M.Ab.F11 of collagen-induced platelet aggregation [3, 7]: completely blocked

SVTVHSSEPEVRIPENNPVKLSC [peptide 1, N-terminal peptide of F11R, amino acids 1-23]
inhibition in platelet adhesion assay (immobilized M.Ab.F11) [1]: inhibition | inhibition of the adhesion of platelets to immobilized M.Ab.F11 ([1]; peptide 50 μM): about 60% | inhibition of the adhesion of platelets to immobilized M.Ab.F11 ([1]; peptide 500 μM): about 70% | inhibition of M.Ab.F11 plus ADP-induced platelet aggregation ([2]; peptide approximately 50 μM): completely inhibited | inhibition of M.Ab.F11 plus ADP-induced platelet aggregation ([2]; peptide approximately 50 μM, listed as Peptide 1): completely inhibited platelet aggregation | persistence of inhibition of M.Ab.F11 plus ADP-induced platelet aggregation ([2]; peptide approximately 50 μM, examined after a 12 h period): aggregation did not ensue | block of potentiation by M.Ab.F11 of collagen-induced platelet aggregation [3, 7]: completely blocked

dKSVTdREDTGTYTC-CONH2 [peptide 4D]
size of the atherosclerotic plaques, en face assay (entire aorta, Oil red O) ([4]; 3, 4 and 5 month period of injection, FIG. 9D): decrease in the size of the atherosclerotic plaques | size of the plaque/lesion areas, proximal aorta ([4]; 3, 4 and 5 months of injections): significant decreases | size of the necrosis core area (NE) within the lesion ([4]; 3 month period of injection, FIG. 10C): significant decrease | physical appearance of the animals (secondary consequences of atherosclerosis) ([4]; apoE KO mice, daily injection): prevented the degeneration of the animal's appearance | physical appearance of the animals (secondary consequences of atherosclerosis) ([4]; apoE KO mice, daily injection, listed as F11R peptide 4D): diminishes the secondary consequences | loss of hair, itching/scratching and lesions on the skin ([4]; apoE KO mice, daily injection, FIG. 7C-F): not observed | rate and extent of atherosclerotic plaque formation in major arterial blood vessels ([4]; apoE KO mice, summary of FIGS. 8-10): significantly decreases | size of atherosclerotic plaques in the aortic arch ([4]; three, four and five months of injection, hematoxylin-eosin sections, FIG. 8): beneficial effects | size of the lesion area, proximal aorta (root assay) ([4]; treated for 3 months, *P<0.05, FIG. 10B): significant decrease

SYEDRVTFLPTGITFKSVTRED [peptide 2, F11R amino acids 55-76, control peptide]
inhibition of the adhesion of platelets to immobilized M.Ab.F11 ([1]; peptide 500 μM): did not cause significant inhibition | inhibition of M.Ab.F11 plus ADP-induced platelet aggregation [2, 6]: no inhibitory effects | inhibition of M.Ab.F11 plus ADP-induced platelet aggregation ([2]; peptide approximately 50-500 μM, listed as SEQ ID NO: 2): do not inhibit aggregation

WKFDQGDTTRLVEYNNKITASY [peptide 3, F11R amino acids 35-56, control peptide]
inhibition of the adhesion of platelets to immobilized M.Ab.F11 ([1]; peptide 500 μM): did not cause significant inhibition | inhibition of M.Ab.F11 plus ADP-induced platelet aggregation [2, 6]: no inhibitory effects | inhibition of M.Ab.F11 plus ADP-induced platelet aggregation ([2]; peptide approximately 50-500 μM, listed as SEQ ID NO: 3): do not inhibit aggregation | block of potentiation by M.Ab.F11 of collagen-induced platelet aggregation [3, 7]: did not inhibit platelet aggregation

B1: sF11R: secreted recombinant F11R, extracellular portion (amino acids ser-1 to asn-208), His tag, from COS-7 cells (protein)
chain: SVTVHSSEPEVRIPENNPVKLSCAYSGFSSPRVEWKFDQGDTTRLVCYNNKITASYEDRVTFLPTGITFKSVTREDTGTYTCMVSEEGGNSYGEVKVKLIVLVPPSKPTVNIPSSATIGNRAVLTCSEQDGSPPSEYTWFKDGIVMPTNPKSTRAFSNSSYVLNPTTGELVFDPLSASDTGEYSCEARNGYGTPMTSNAVRMEAVERN
modifications: left off: small tags and cut ends
notes: secreted recombinant F11R, extracellular portion (amino acids ser-1 to asn-208), His tag, from COS-7 cells
block of potentiation by M.Ab.F11 of ADP-induced platelet aggregation ([2]; sF11R 1 μg/ml): completely blocked | inhibition of M.Ab.F11-induced platelet aggregation [5]: effectively inhibited; also recorded: Inhibition | block of potentiation by M.Ab.F11 of collagen-induced platelet aggregation ([3]; sF11R 1 μg/ml): completely blocked
